Laboratory results reported in patent US7817840B2, “Predicting hepatotoxicity using cell based assays” (Cytokinetics, Inc., priority 2003, dated 2010).
pIC50: −log10 of the molar value.

How the values were obtained:
Primary rat hepatocytes = test: MTS/PMS cell viability (hepatotoxicity) assay, 24-hour exposure; type: cell-based; settings: Hepatocyte, 9-point dilution series, read-out: IC50 (cell viability, formazan absorbance as percent of untreated control)
Method: To measure the viability of hepatocytes after plating, an aqueous CellTiter Non-radioactive Cell Proliferation Assay may be used (Promega, Madison, Wis.). This assay can also be used to measure the hepatoxicity of a test compound.
In one example of the assay, hepatoxicity is determined by assaying rat hepatocytes for viability following a 24-hour exposure to a 9-point dilution series of compound (to allow assessment of dose). Cell viability is determined by measuring the absorbance of formazon, a product formed by the bioreduction of MTS/PMS, commercially available reagents. […]
With reference to FIG. 6, in a sterile 2 mL v-bottom assay block, dispense 2.5 μl of compound at 400× highest desired concentration to wells in column 3, rows B through G. (six different compounds per block, one for each row, edge wells are not used due to evaporation). […] Next, add 250 μL of media containing 0.2% Triton X-100 to column 2, rows E, F, and G. ODs (optical density or absorbance) from this well will be used to subtract out for background absorbance of dead cells and vehicle. […]
Day 3—MTS Addition and OD Reading
A. After 24 hours of incubation with drug, remove plates from incubator and add 40 μl MTS/PMS to each well. […] Read ODs at 490 nm after a 5 second shaking cycle in a ninety-six well spectrophotometer. […]

bile flow = settings: rats; cited from earlier work
[1] = test system: human hepatoma cell line HepG2; settings: HepG2 cells incubated with compound; previous studies; cited from earlier work

Compound | Nile Red binding (lipid accumulation) [1] | other results
O=c1ccc2ccccc2o1 [Coumarin] | – | pIC50 (Primary rat hepatocytes): ~4.28
C=C1[C@@H](C)[C@H]2[C@H](Cc3ccccc3)NC(=O)[C@]23OC(=O)/C=C/[C@H](O)CCC[C@@H](C)C/C=C/[C@H]3[C@@H]1O [cytochalasin B] | – | effect on bile flow (bile flow): prompt arrest of bile flow
CCSCC[C@H](N)C(=O)O [ethionine] | increased Nile Red binding | –
CCCC(CCC)C(=O)O [valproic acid] | increased Nile Red binding | –
estrogen | increased Nile Red binding | –
